Results on three compounds are retold here after patent publication US20260297542A1, “HERBICIDE RESISTANT PLANTS” (SYNGENTA CROP PROTECTION AG, priority 2023, published 2026).

Positions count from the first letter of the chain named.

Common to all, as to assay: E. coli hemG growth inhibition by herbicide, AtPPO1 variant
What all share (type): cell-based
Settings in all cases: read-out: percentage growth inhibition

For one test, the target named is T1, AtPPO1 E111D (Arabidopsis thaliana, UniProt P55826, E111D).
T1 construct: expressed in transfected cells; host or cells: E. coli BL21(DE3) hemG (hemG replaced by CmR), pET24a plasmid
T1 sequence (P55826 35-537 E111D): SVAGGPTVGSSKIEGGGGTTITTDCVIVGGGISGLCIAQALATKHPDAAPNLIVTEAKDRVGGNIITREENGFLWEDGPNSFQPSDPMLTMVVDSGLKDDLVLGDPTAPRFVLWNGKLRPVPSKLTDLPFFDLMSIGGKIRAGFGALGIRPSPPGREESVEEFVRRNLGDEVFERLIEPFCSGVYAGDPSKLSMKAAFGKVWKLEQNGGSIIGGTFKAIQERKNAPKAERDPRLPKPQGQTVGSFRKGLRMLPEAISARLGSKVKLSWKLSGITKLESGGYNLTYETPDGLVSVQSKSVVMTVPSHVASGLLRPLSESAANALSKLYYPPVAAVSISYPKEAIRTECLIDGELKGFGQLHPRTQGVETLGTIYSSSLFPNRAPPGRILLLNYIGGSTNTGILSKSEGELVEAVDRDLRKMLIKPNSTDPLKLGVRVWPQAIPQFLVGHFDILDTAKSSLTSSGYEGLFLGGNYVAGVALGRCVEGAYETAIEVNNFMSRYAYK
The gist of the method:
(§1)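 Variant plasmids were transformed into hemG-null BL21(DE3) and precultured 24 h with hematin. Washed cells were diluted 1:100 into Terrific broth containing 0.1 mM IPTG and herbicide (6.25 ppm 0 or E; 0.78 ppm B) or DMSO. After 24 h at 37° C, OD600 gave percent inhibition.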

A further test has as its target T2, AtPPO1 C516Q (Arabidopsis thaliana, UniProt P55826, C516Q).
T2 construct: expressed in transfected cells; host or cells: E. coli BL21(DE3) hemG, pET24a plasmid
T2 sequence (P55826 35-537 C516Q): T1 sequence (P55826 35-537 E111D) with D77E, C482Q
The gist of the method: as §1

A further test concerns the target T3, AtPPO1 L479M (Arabidopsis thaliana, UniProt P55826, L479M).
T3 construct: expressed in transfected cells; host or cells: E. coli BL21(DE3) hemG, pET24a plasmid
T3 sequence (P55826 35-537 L479M): T1 sequence (P55826 35-537 E111D) with D77E, L445M
The gist of the method: as §1

The next test addresses T4, AtPPO1 L360C (Arabidopsis thaliana, UniProt P55826, L360C).
T4 construct: expressed in transfected cells; host or cells: E. coli BL21(DE3) hemG (pET24a, T7 promoter)
T4 sequence (P55826 35-537 L360C): T1 sequence (P55826 35-537 E111D) with D77E, L326C
In outline:
as §1

By inhibition is commonly meant the drop in the measured response relative to a control, in per cent. `C#CCN1C(=O)C(F)(F)Oc2cc(F)c(-n3c(=O)n(C)c(=S)n(C)c3=O)cc21` [Herbicide B, trifludimoxazin]: the inhibition at 0.78 ppm was 23% at AtPPO1 E111D, 18% at AtPPO1 C516Q, 29% on AtPPO1 L479M and 25% on AtPPO1 L360C.
As for `CCOC(=O)[C@]1(C)CC(c2cc(-n3c(=O)n(C)c(=S)n(C)c3=O)c(F)cc2Cl)=NO1` [Herbicide D, ethyl (5S)-3-[2-chloro-5-(3,5-dimethyl-2,6-dioxo-4-thioxo-1,3,5-triazinan-1-yl)-4-fluoro-phenyl]-5-methyl-4H-isoxazole-5-carboxylate], the inhibition at 6.25 ppm is 30% on AtPPO1 E111D, 28% at AtPPO1 C516Q, 4% on AtPPO1 L479M and 21% on AtPPO1 L360C.
With `CC(C)N(C)S(=O)(=O)NC(=O)c1cc(-n2c(=O)cc(C(F)(F)F)n(C)c2=O)c(F)cc1Cl` [Herbicide E, saflufenacil], the inhibition at 6.25 ppm amounted to 69% on AtPPO1 E111D, 51% on AtPPO1 C516Q, 28% on AtPPO1 L479M and 33% at AtPPO1 L360C.
